24 molecules from patent US20220089578A1, “COMPOUNDS AS GLP-1R AGONISTS” (Terns Pharmaceuticals, Inc., priority 2020, published 2022) can be followed below.

Some results are limits rather than exact numbers.

Sequence of human GLP-1R (P43220 24-463): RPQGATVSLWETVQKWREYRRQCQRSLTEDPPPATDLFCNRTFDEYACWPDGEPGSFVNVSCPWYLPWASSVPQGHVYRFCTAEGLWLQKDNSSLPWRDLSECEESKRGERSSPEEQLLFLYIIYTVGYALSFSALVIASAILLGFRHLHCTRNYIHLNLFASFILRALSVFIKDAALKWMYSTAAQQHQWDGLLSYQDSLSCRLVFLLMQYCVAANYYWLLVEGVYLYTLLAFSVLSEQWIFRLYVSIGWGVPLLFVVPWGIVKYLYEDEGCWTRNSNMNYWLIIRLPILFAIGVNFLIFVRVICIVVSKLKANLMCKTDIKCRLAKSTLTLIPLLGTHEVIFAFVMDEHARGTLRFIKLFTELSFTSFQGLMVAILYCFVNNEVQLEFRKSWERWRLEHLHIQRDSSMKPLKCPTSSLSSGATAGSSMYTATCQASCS

The first assay addresses human GLP-1R (Homo sapiens, UniProt P43220). The assay can be described thus: GLP-1R Cell Assay 1: cAMP Hunter CHO-K1 GLP1R Gs cell line, HitHunter cAMP assay. The conditions noted are these: Table 2; cAMP Hunter CHO-K1 GLP1R Gs cells; percent activity normalized to Exendin-4. In kind it is cell-based. How it is done: GLP-1R mediated agonist activity was determined using the cAMP Hunter CHO-K1 GLP1R Gs cell line (DiscoverX, cat# 95-0062C2), a stable CHO-K1 derived cell lines overexpressing naturally Gs coupled wild-type human GLP-1R (accession number: NM_002062.3). GLP-1R agonism in this cell line was detected by measuring cellular cAMP levels using the HitHunter cAMP assay kit (cat# 90-0075SM2), a homogenous, gain-of-signal competitive immune assay based on Enzyme Fragment Complementation (EFC) technology. In this system cellular cAMP competes with exogenous labeled cAMP (ED-cAMP) for binding to an anti-cAMP antibody. […] The luminescent signal is directly proportional to the amount of cellular cAMP.
For compound testing, cells were seeded in a total volume of 20 μL in white walled, 384-well microplates and incubated at 37° C. prior to compound testing. Prior to compound addition, cell culture media was removed by aspiration and replaced with 15 pt reagent buffer (2:1 HBSS/10 mM HEPES: cAMP XS+Ab reagent). Compounds were dissolved in DSMO and serially diluted (3-fold) prior to final dilution to 4X in assay buffer. Samples (5 μL) were added to cells and incubated at 37° C. for […] prior to 1 hour incubation with 20 pt cAMP XS+ED/CL lysis reagent and 3 hour incubation with 20 μL cAMP XS+EA reagent at room temperature. Microplates were read on a PerkinElmer Envision instrument. Compound activity was analyzed using CBIS data analysis suite (ChemInnovation). Percent activity was calculated based on duplicate assay runs and normalized to the positive control Exendin-4, a GLP-1R peptide agonist, using the following formula: […]
The effective compound concentration resulting in 50% response (EC50) was determined by non-linear regression analysis of dose-response curves.
In general terms: Changes in cAMP serve as a functional read-out for many G protein-coupled receptors.
In the case of `C[C@@H]1COC[C@@H](N2CCC(c3cccc(OCc4ccc(C#N)cc4F)n3)CC2)c2nc3ccc(C(=O)O)cc3n21` [Compound 96, (1R,5S)-5-(4-(6-((4-cyano-2-fluorobenzyl)oxy)pyridin-2-yl)piperidin-1-yl)-1-methyl-1,2,4,5-tetrahydrobenzo[4,5]imidazo[1,2-d][1,4]oxazepine-9-carboxylic acid], the response was half-maximal at 78.1 nM (EC50).
For `N#Cc1ccc(COc2nn(C3CCN(Cc4nc5ccc(C(=O)O)cc5n4C[C@@H]4CCO4)CC3)cc2CO)c(F)c1` [Compound 136, (S)-2-((4-(3-((4-cyano-2-fluorobenzyl)oxy)-4-(hydroxymethyl)-1H-pyrazol-1-yl)piperidin-1-yl)methyl)-1-(oxetan-2-ylmethyl)-1H-benzo[d]imidazole-6-carboxylic acid], the EC50 (commonly the concentration giving half of the maximal effect) came to 109 nM.
On the same count and under the same terms, as for `O=C(O)c1ccc2nc(CN3CCN(c4cccc(OCc5nc6ccc(Cl)cc6s5)n4)CC3)n(C[C@@H]3CCO3)c2c1` [Compound 113, (S)-2-((4-(6-((6-chlorobenzo[d]thiazol-2-yl)methoxy)pyridin-2-yl)piperazin-1-yl)methyl)-1-(oxetan-2-ylmethyl)-1H-benzo[d]imidazole-6-carboxylic acid], the figure is 0.176 nM; as for `N#Cc1ccc2c(c1)CN(c1cccc(N3CCN(Cc4nc5ccc(C(=O)O)cc5n4C[C@@H]4CCO4)CC3)n1)CCC2` [Compound 66, (S)-2-((4-(6-(8-cyano-1,3,4,5-tetrahydro-2H-benzo[c]azepin-2-yl)pyridin-2-yl)piperazin-1-yl)methyl)-1-(oxetan-2-ylmethyl)-1H-benzo[d]imidazole-6-carboxylic acid], 135 nM.
Turning to `O=C(O)c1ccc2nc(CN3CCN(c4cccc(OC5(c6ccccc6)COC5)n4)CC3)n(C[C@@H]3CCO3)c2c1` [Compound 45, (S)-1-(oxetan-2-ylmethyl)-2-((4-(6-((3-phenyloxetan-3-yl)oxy)pyridin-2-yl)piperazin-1-yl)methyl)-1H-benzo[d]imidazole-6-carboxylic acid], the midpoint of the response, the EC50, lay at 21.7 nM.
The same measure, in the same setting: as for `N#Cc1ccc2c(c1)CN(c1cccc(N3CCN(Cc4nc5ccc(C(=O)O)cc5n4C[C@@H]4CCO4)CC3)n1)CC2` [Compound 77, (S)-2-((4-(6-(7-cyano-3,4-dihydroisoquinolin-2(1H)-yl)pyridin-2-yl)piperazin-1-yl)methyl)-1-(oxetan-2-ylmethyl)-1H-benzo[d]imidazole-6-carboxylic acid], the figure is 117 nM; as for `O=C(O)c1ccc2nc(CN3CCN(c4cccc(OCc5nc6ccccc6o5)n4)CC3)n(C[C@@H]3CCO3)c2c1` [Compound 67, (S)-2-((4-(6-(benzo[d]oxazol-2-ylmethoxy)pyridin-2-yl)piperazin-1-yl)methyl)-1-(oxetan-2-ylmethyl)-1H-benzo[d]imidazole-6-carboxylic acid], 0.849 nM; as for `O=C(O)c1ccc2nc(CN3CCN(c4cccc(OCc5cccnc5)n4)CC3)n(C[C@@H]3CCO3)c2c1` [Compound 53, (S)-1-(oxetan-2-ylmethyl)-2-((4-(6-(pyridin-3-ylmethoxy)pyridin-2-yl)piperazin-1-yl)methyl)-1H-benzo[d]imidazole-6-carboxylic acid], 7.7 nM.
`N#Cc1ccc(COc2cccc(C3CCN([C@H]4CCCCn5c4nc4ccc(C(=O)O)cc45)CC3)n2)c(F)c1` [Compound 91, (S)-6-(4-(6-((4-cyano-2-fluorobenzyl)oxy)pyridin-2-yl)piperidin-1-yl)-7,8,9,10-tetrahydro-6H-benzo[4,5]imidazo[1,2-a]azepine-2-carboxylic acid] registered a 50% effective concentration (EC50) of 17.3 nM.
The molecule `O=C(O)c1ccc2nc(CN3CCN(c4cccc(OCc5ccccc5)n4)C(=O)C3)n(C[C@@H]3CCO3)c2c1` [Compound 19, (S)-2-((4-(6-(benzyloxy)pyridin-2-yl)-3-oxopiperazin-1-yl)methyl)-1-(oxetan-2-ylmethyl)-1H-benzo[d]imidazole-6-carboxylic acid] displayed an EC50 of 41.2 nM. This EC50 is about 2.4-fold higher than that of the molecule before.
Regarding `O=C(O)c1ccc2nc(CN3CCC(n4nc(OCc5ccccc5)c5c4CCCC5)CC3)n(C[C@@H]3CCO3)c2c1` [Compound 23, (S)-2-((4-(3-(benzyloxy)-4,5,6,7-tetrahydro-1H-indazol-1-yl)piperidin-1-yl)methyl)-1-(oxetan-2-ylmethyl)-1H-benzo[d]imidazole-6-carboxylic acid], the 50% effective concentration (EC50) is above 500 nM.
Turning to `O=C(O)c1ccc2nc(CN3CCN(c4cccc(OCc5nc6cccc(F)c6s5)n4)CC3)n(C[C@@H]3CCO3)c2c1` [Compound 123, (S)-2-((4-(6-((7-fluorobenzo[d]thiazol-2-yl)methoxy)pyridin-2-yl)piperazin-1-yl)methyl)-1-(oxetan-2-ylmethyl)-1H-benzo[d]imidazole-6-carboxylic acid], the EC50 worked out at 1.07 nM.
Consider `O=C(O)c1ccc2nc(CN3CCN(c4cccc(OCc5ccc(Cl)cn5)n4)CC3)n(C[C@@H]3CCO3)c2c1` [Compound 58, (S)-2-((4-(6-((5-chloropyridin-2-yl)methoxy)pyridin-2-yl)piperazin-1-yl)methyl)-1-(oxetan-2-ylmethyl)-1H-benzo[d]imidazole-6-carboxylic acid], for which the EC50 was 0.221 nM. Against the preceding molecule, the EC50 is about 4.8-fold lower.
Still for that read-out and setting: as for `O=C(O)c1ccc2nc(CN3CCN(c4cccc(OCc5nc6ccccc6s5)n4)CC3)n(C[C@@H]3CCO3)c2c1` [Compound 69, (S)-2-((4-(6-(benzo[d]thiazol-2-ylmethoxy)pyridin-2-yl)piperazin-1-yl)methyl)-1-(oxetan-2-ylmethyl)-1H-benzo[d]imidazole-6-carboxylic acid], the figure is 0.394 nM; as for `O=C(O)c1ccc2nc(CN3CCN(c4cccc(OCc5cc6ccccc6o5)n4)CC3)n(C[C@@H]3CCO3)c2c1` [Compound 68, (S)-2-((4-(6-(benzofuran-2-ylmethoxy)pyridin-2-yl)piperazin-1-yl)methyl)-1-(oxetan-2-ylmethyl)-1H-benzo[d]imidazole-6-carboxylic acid], 2.03 nM; as for `Cc1cn(C2CCN(Cc3nc4ccc(C(=O)O)cc4n3C[C@@H]3CCO3)CC2)nc1OCc1ccccc1` [Compound 24, (S)-2-((4-(3-(benzyloxy)-4-methyl-1H-pyrazol-1-yl)piperidin-1-yl)methyl)-1-(oxetan-2-ylmethyl)-1H-benzo[d]imidazole-6-carboxylic acid], 350 nM.
`N#Cc1ccc(COc2nn(C3CCN(Cc4nc5ccc(C(=O)O)cc5n4C[C@@H]4CCO4)CC3)cc2F)c(F)c1` [Compound 108, (S)-2-((4-(3-((4-cyano-2-fluorobenzyl)oxy)-4-fluoro-1H-pyrazol-1-yl)piperidin-1-yl)methyl)-1-(oxetan-2-ylmethyl)-1H-benzo[d]imidazole-6-carboxylic acid] came in with an EC50 of 4.15 nM. This EC50 lies about 84-fold lower than the previous one.
Take `O=C(O)c1ccc2nc(CN3CC[C@]4(c5cccc(OCc6nc7ccccc7s6)n5)C[C@@H]4C3)n(C[C@@H]3CCO3)c2c1` (single isomer, unassigned) [Compound 104-P2]: the midpoint of the response, the EC50, lay at 8.12 nM.
On to `N#Cc1ccc(COc2cccc([C@@]34CCN(Cc5nc6ccc(C(=O)O)cc6n5C[C@@H]5CCO5)C[C@@H]3C4)n2)c(F)c1` (single isomer, unassigned) [Compound 9-P1], for which a half-maximal effect (EC50) was put at 0.171 nM.
`N#Cc1ccc2c(c1)CCCN2c1cccc(N2CCN(Cc3nc4ccc(C(=O)O)cc4n3C[C@@H]3CCO3)CC2)n1` [Compound 76, (S)-2-((4-(6-(6-cyano-3,4-dihydroquinolin-1(2H)-yl)pyridin-2-yl)piperazin-1-yl)methyl)-1-(oxetan-2-ylmethyl)-1H-benzo[d]imidazole-6-carboxylic acid] yielded an EC50 above 500 nM.

Still in this assay, the particulars now being: Table 3; cAMP Hunter CHO-K1 GLP1R Gs cells; percent activity normalized to Exendin-4.
`N#Cc1ccc(CCn2ccc(C3CCN(Cc4nc5ccc(C(=O)O)cc5n4C[C@@H]4CCO4)CC3)n2)c(F)c1` [Compound 145, (S)-2-((4-(1-(4-cyano-2-fluorophenethyl)-1H-pyrazol-3-yl)piperidin-1-yl)methyl)-1-(oxetan-2-ylmethyl)-1H-benzo[d]imidazole-6-carboxylic acid] registered an EC50 above 500 nM.
`CCn1cncc1Cn1c(CN2CCC(c3cccc(OCc4nc5ccc(C#N)cc5s4)n3)CC2)nc2ccc(C(=O)O)cc21` [Compound 165, 2-((4-(6-((6-cyanobenzo[d]thiazol-2-yl)methoxy)pyridin-2-yl)piperidni-1-yl)methyl)-1-((1-ethyl-1H-imidazol-5-yl)methyl)-1H-benzo[d]imidazole-6-carboxylic acid] returned an EC50 of 0.0254 nM. This lies in the picomolar range.
For `O=C(O)c1ccc2nc(CN3CCN(c4cc5ccccc5c(OCc5ccccc5)n4)CC3)n(C[C@@H]3CCO3)c2c1` [Compound 156, (S)-2-((4-(1-(benzyloxy)isoquinolin-3-yl)piperazin-1-yl)methyl)-1-(oxetan-2-ylmethyl)-1H-benzo[d]imidazole-6-carboxylic acid], a half-maximal response (EC50) required 87.1 nM.
Same read-out and setting: the figure for `N#Cc1ccc2c(c1)CCC[C@@H]2Oc1cccc(C2CCN(Cc3nc4ccc(C(=O)O)cc4n3C[C@@H]3CCO3)CC2)n1` (single isomer, unassigned) [Compound 146-P2] is 7.02 nM.
